Values of other authors in patent publication US5413915A (priority 1991, dated 1995).
Marks after values point to notes of the source that are not given here.

Tests used:
[1] = in vivo; cited from earlier work
[2] = in vivo; cited from earlier work; remark: listed apart in the source
Salmonella typhimurium = details: cited from earlier work

Compound | Teratogen Activity [1] | Tumorigen Activity [2] | Mutagenicity (Salmonella typhimurium) | Tumorigen Activity, assignment based on IARC reports [2] | Tumorigen Activity, assignment based on NCI/NTP carcinogenesis bioassay results [2] | Carcinogenic Status [2]
BrCCBr [1,2-Dibromoethane] | - | + | + |  |  | 
CCCCO [1-Butanol] | - | - | - |  |  | 
O=C(O)COc1ccc(Cl)cc1Cl [2,4-D] | + |  | - | + | - | 
CC(C)O [2-Propanol] | - | - | - | + |  | 
O=c1cc(-c2ccccc2)oc2ccc3ccccc3c12 [5,6-Naphthoflavone] | - | - | - |  |  | 
CCc1cccc(CC)c1N(COC)C(=O)CCl [Alachlor (ind.), Alachlor] | - | - | - |  |  | 
O=C1O[C@H]([C@@H](O)CO)C(O)=C1O [Ascorbate] | + | - | + |  |  | Negative
CCC1(CC)C(=O)NC(=O)NC1=O [Barbital] | - | - | - |  |  | 
ClC(Cl)Cl [CHCl3] | + | + | + |  |  | 
S=C=S [CS2] | + | - | + |  |  | 
CNC(=O)Oc1cccc2ccccc12 [Carbaryl (ind.), Carbaryl] | + | + |  |  |  | 
CNC(=O)Oc1cccc2c1OC(C)(C)C2 [Carbofuran (ind.), Carbofuran] | - | - | + |  |  | 
O=C(O)CC(O)(CC(=O)O)C(=O)O [Citrate] | - | - |  |  |  | 
CCNc1nc(Cl)nc(NC(C)(C)C#N)n1 [Cyanazine (ind.), Cyanazine] | - | - | + |  |  | 
COc1c(Cl)ccc(Cl)c1C(=O)O [Dicamba (ind.), Dicamba] | - | - | + |  |  | 
ClC1=C(Cl)[C@]2(Cl)[C@@H]3[C@@H]4C[C@@H]([C@H]5O[C@@H]45)[C@@H]3[C@@]1(Cl)C2(Cl)Cl [Dieldrin] | + | +^e | + |  |  | 
CN(C)C=O [Dimethylformamide] | - | - | + |  |  | 
C[S+](C)[O-] [Dimethylsulfoxide] | + | - | - |  |  | 
O=C(O)CN(CCN(CC(=O)O)CC(=O)O)CC(=O)O [EDTA] | + | - | - |  |  | 
CCO [Ethanol] | + | - | - |  |  | 
CCOC(C)=O [Ethyl Acetate] | - | - | - |  |  | 
OCC(O)CO [Glycerol] | - | - |  |  |  | 
CCOP(=S)(NC(C)C)Oc1ccccc1C(=O)OC(C)C (stereo not shown) [Isofenphos (ind.), Isofenphos] | - | - | - |  |  | 
CCOP(=S)(OCC)Oc1nc(Cl)n(C(C)C)n1 [Isozofos (ind.), Isozofos] | -? | -? | -? |  |  | 
O=S(=O)(O)CCCN1CCOCC1 [MOPS Buffer, morpholinopropanesulfonic acid] | -? | -? | -? |  |  | 
OC[C@@H](O)[C@@H](O)[C@H](O)[C@H](O)CO [Mannitol] | - | - | - |  |  | 
CO [Methanol] | + | - | - |  |  | 

Compound | Teratogen Activity [1] | Tumorigen Activity [2] | Mutagenicity (Salmonella typhimurium) | Tumorigen Activity, assignment based on IARC reports [2] | Tumorigen Activity, assignment based on NCI/NTP carcinogenesis bioassay results [2] | Carcinogenic Status [2]
CNC(=O)ON=C(C)SC [Methomyl (ind.), Methomyl] | - | - | - |  |  | 
C[n+]1ccc(-c2cc[n+](C)cc2)cc1 [Methyl viologen] | + | + | + |  |  | 
CCc1cccc(C)c1N(C(=O)CCl)C(C)COC (stereo not shown) [Metolachlor (ind.), Metolachlor] | - | - | + |  |  | 
CNC(=O)Oc1cc(C)c(N(C)C)c(C)c1 [Mexacarbate (ind.), Mexacarbate] | - | +^b | - |  | - | 
[Cl-].[Na+] [NaCl] | - | - | - |  |  | 
c1ccc2ccccc2c1 [Naphthalene] | + | +/- |  |  |  | 
O=C(O)CN(CC(=O)O)CC(=O)O [Nitrilotriacetate] | + | + | - |  |  | 
O=[O+][O-] [Ozone] | + | +^b | - |  |  | 
C[n+]1ccc(-c2cc[n+](C)cc2)cc1 [Paraquat (ind.), Paraquat] | + | - | + |  |  | 
O=C(O)COc1ccccc1 [Phenoxyacetate] | - | - | - |  |  | 
O=S(=O)(F)Cc1ccccc1 [Phenylmethylsulfonyl fluoride] | - | - | - |  |  | 
CNC(=O)Oc1ccccc1OC(C)C [Propoxur (ind.), Propoxur] | - | - | - |  |  | 
CCNc1nc(Cl)nc(NCC)n1 [Simazine (ind.), Simazine] | + | +^e | - |  |  | 
CCCCCCCCCCCCOS(=O)(=O)[O-].[Na+] [Sodium laurylsulfate] | - | - | - |  |  | 
NC(CO)(CO)CO [TRIS Buffer, tris(hydroxymethyl-)aminomethane] | - | - | - |  |  | 
ClC(Cl)=C(Cl)Cl [Tetrachloroethylene] | + | + | + |  |  | 
O=S(=O)(c1ccc(Cl)cc1)c1cc(Cl)c(Cl)cc1Cl [Tetradifon (ind.), Tetradifon] | - | - | - |  |  | 
Cc1cc(-c2cc(C)c(N)c(C)c2)cc(C)c1N [Tetramethylbenzidine] | - | - | - |  |  | 
Cn1c(=O)c2[nH]cnc2n(C)c1=O [Theophylline] | + | - |  |  |  | 
Cc1ccccc1 [Toluene] | + | - |  |  |  | 
CCN(CC)CC [Triethylamine] | - | - | - |  |  | 
NC(N)=O [Urea] | - | + | - |  |  | 
CCCCCC [n-Hexane] | - | - | - |  |  | 
c1cnc2c(c1)ccc1cccnc12 [o-Phenanthroline] | - | - | - |  |  | 
Oc1ccc(-c2ccccc2)cc1 [p-Hydroxybiphenyl] | -? | + | - |  |  | 
Cyanacrylate [Cyanacrylate (ind.)] | - | - | - |  |  | 
